Among the data in PubChem BioAssay (NCI) are GI50 and TGI values, retold here.

Among the test systems are NCI/ADR-RES ovarian; MCF7 breast; PC-3 prostate; BT-549 breast; MDA-MB-435; MDA-MB-231 breast.
Holding throughout (experiment): growth of human tumour cells (NCI), 48 h

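Where inhibition never reached the appropriate level, the endpoint shown equals the highest concentration tested. Otherwise, values were interpolated linearly from a five-concentration, 48-hour dose response in 96-well plates. At the GI50, growth is halved. TGI is the concentration that stops growth completely.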

With `COc1cc(/C=N/O)nc(-c2ccccn2)c1`, the GI50 with NCI/ADR-RES ovarian was 0.294 µM; in the assay with MCF7 breast, 0.347 µM; in the assay with PC-3 prostate, 0.437 µM; in the assay on BT-549 breast it was 0.803 µM; in the assay on MDA-MB-435 it was 0.492 µM; with MDA-MB-231 breast, 0.541 µM. Further, the TGI with NCI/ADR-RES ovarian is 10.9 µM; in the assay with MCF7 breast, greater than 100 µM; in the assay on PC-3 prostate, greater than 100 µM; in the assay on BT-549 breast, greater than 100 µM; in the assay with MDA-MB-435 it was greater than 100 µM; with MDA-MB-231 breast, greater than 100 µM.

`CC1CCC(C#N)(NOC2=NCCN2)CC1` (stereo not given): the GI50 was greater than 100 µM in the assay with NCI/ADR-RES ovarian; 55.6 µM in the assay with MCF7 breast; greater than 100 µM in the assay with PC-3 prostate; 31.3 µM in the assay on BT-549 breast; 29.2 µM with MDA-MB-435; 54.9 µM with MDA-MB-231 breast. Moreover, the TGI in the assay with NCI/ADR-RES ovarian, in the assay on MCF7 breast, with PC-3 prostate, with BT-549 breast, with MDA-MB-435 and in the assay with MDA-MB-231 breast was greater than 100 µM in each case.

Turning to `COc1cc(C(=O)/C=C/c2c(-c3cccs3)nc3ccccn23)cc(OC)c1OC`, the GI50 is 1.89 µM in the assay with NCI/ADR-RES ovarian; 1.12 µM with MCF7 breast; 1.86 µM in the assay on BT-549 breast; 2.49 µM in the assay with MDA-MB-435; 3.08 µM in the assay with MDA-MB-231 breast. The TGI is 6.92 µM in the assay with NCI/ADR-RES ovarian; 15.4 µM in the assay on MCF7 breast; 5.55 µM in the assay on BT-549 breast; 9.52 µM with MDA-MB-435; 26.2 µM with MDA-MB-231 breast.

Regarding `COC(=O)C1=C2CO[C@@H]3C[C@H]4C(C)(C)CCC[C@]4(C)C(=CC1)[C@]23C`, the GI50 is 44 µM in the assay with MCF7 breast; 0.229 µM in the assay with PC-3 prostate; 48.9 µM in the assay with BT-549 breast; 16.7 µM in the assay on MDA-MB-435; 83 µM with MDA-MB-231 breast. The TGI was greater than 100 µM in the assay with MCF7 breast; 0.692 µM with PC-3 prostate; greater than 100 µM in the assay with BT-549 breast; 37.5 µM in the assay on MDA-MB-435; greater than 100 µM in the assay on MDA-MB-231 breast.

`COc1ccc(-c2cc3nccn3c(Nc3ncccc3C(N)=O)n2)cc1OC`: the GI50 with NCI/ADR-RES ovarian was greater than 26.6 µM; with MCF7 breast, 1.87 µM; in the assay with PC-3 prostate, greater than 100 µM; in the assay on BT-549 breast it was 0.886 µM; in the assay on MDA-MB-231 breast, greater than 100 µM. The TGI in the assay on NCI/ADR-RES ovarian, with MCF7 breast, in the assay with PC-3 prostate, in the assay on BT-549 breast and in the assay on MDA-MB-231 breast was greater than 100 µM each time.

As for `NCCCn1c2c(c3ccc([N+](=O)[O-])cc3c1=O)C(=O)c1cc(Cl)ccc1-2`, the GI50 is less than 0.01 µM with NCI/ADR-RES ovarian; less than 0.01 µM in the assay on MCF7 breast; less than 0.0163 µM in the assay on PC-3 prostate; 0.0635 µM in the assay on BT-549 breast; 0.218 µM in the assay on MDA-MB-231 breast. For the same compound, the TGI in the assay with NCI/ADR-RES ovarian stood at 0.292 µM; in the assay on MCF7 breast, 0.141 µM; in the assay with PC-3 prostate it was 0.381 µM; in the assay on BT-549 breast, 1.4 µM; in the assay with MDA-MB-231 breast it was 0.64 µM.

As for `CCC(C)c1cnc(CC(C)C)c(=O)[nH]1` (stereo not given), the TGI in the assay with MCF7 breast, with PC-3 prostate, in the assay with BT-549 breast, in the assay with MDA-MB-435 and with MDA-MB-231 breast was greater than 100 µM throughout.

For the compound `O=C1/C(=C/c2ccc(C(F)(F)F)cc2)COc2ccc(O)cc21`, the GI50 in the assay on NCI/ADR-RES ovarian is 2.15 µM; with PC-3 prostate it was 1.89 µM; in the assay with BT-549 breast it was 4.29 µM; in the assay on MDA-MB-435, 2.41 µM; in the assay on MDA-MB-231 breast, 2.36 µM. Besides, the TGI with NCI/ADR-RES ovarian was found to be 6.42 µM; in the assay with PC-3 prostate, 4.17 µM; with BT-549 breast, 15.5 µM; with MDA-MB-435, 6.54 µM; in the assay on MDA-MB-231 breast, 5.65 µM.

Take `Oc1oc(-c2ccccc2)nc1/C=C1/C=NN=N1`: the TGI in the assay on NCI/ADR-RES ovarian, with MCF7 breast, in the assay with PC-3 prostate, in the assay with MDA-MB-435 and with MDA-MB-231 breast was greater than 100 µM each time.

For `CC(C)[C@H](O)C(=O)N[C@H]1Cc2ccc3c(c2)[C@]24C5=C(N=C(O5)[C@H](C(C)C)NC1=O)c1nc(Cl)c(o1)-c1c(Cl)[nH]c5cccc(c15)-c1cccc2c1N[C@H]4O3`, the TGI with NCI/ADR-RES ovarian was 3.22 µM; in the assay with MCF7 breast, greater than 10 µM; in the assay with PC-3 prostate it was greater than 10 µM. The GI50 is less than 0.001 µM with MCF7 breast, less than 0.001 µM in the assay with PC-3 prostate and 0.00178 µM in the assay on MDA-MB-231 breast.

`Nc1n[n+]([O-])c2cnccc2[n+]1[O-]`: the TGI is greater than 100 µM in the assay with NCI/ADR-RES ovarian; greater than 100 µM with PC-3 prostate; greater than 100 µM with BT-549 breast; 38.5 µM in the assay with MDA-MB-435; greater than 100 µM with MDA-MB-231 breast.

`C=CC1=C(C)C(Cc2[nH]c(/C=c3\[nH]/c(=C/C4=NC(=O)C(C)/C4=C\C)c(C)c3CCC(=O)O)c(CCC(=O)OC)c2C)NC1=O` (stereo not given): the GI50 was 48.8 µM with NCI/ADR-RES ovarian; 26.7 µM in the assay with MCF7 breast; 32.9 µM with PC-3 prostate; 23.9 µM with MDA-MB-435; 25.4 µM in the assay on MDA-MB-231 breast. For the same compound, the TGI with NCI/ADR-RES ovarian was greater than 100 µM; with MCF7 breast it was greater than 100 µM; in the assay on PC-3 prostate, greater than 100 µM; with MDA-MB-435 it was 62 µM; with MDA-MB-231 breast, 58.9 µM.
